# Residue numbers refer to the chain shown, from its start.
# How the values were obtained:
# [1] = target: tyrosine hydroxylase (TH) (Homo sapiens, UniProt P07101); conditions: 68.9 μM, respect to 2% DMSO controls
# [2] = target: T1, R252W-PAH (Homo sapiens, UniProt P00439, R252W); test: PAH protein level and activity in HEK293 EBNA cells transiently expressing PKU mutant R252W; assay type: cell-based
# T1 construct: expressed in transfected cells; host or cells: HEK293 EBNA, transient, pcDNA3-PAH
# T1 sequence (P00439 1-452 R252W): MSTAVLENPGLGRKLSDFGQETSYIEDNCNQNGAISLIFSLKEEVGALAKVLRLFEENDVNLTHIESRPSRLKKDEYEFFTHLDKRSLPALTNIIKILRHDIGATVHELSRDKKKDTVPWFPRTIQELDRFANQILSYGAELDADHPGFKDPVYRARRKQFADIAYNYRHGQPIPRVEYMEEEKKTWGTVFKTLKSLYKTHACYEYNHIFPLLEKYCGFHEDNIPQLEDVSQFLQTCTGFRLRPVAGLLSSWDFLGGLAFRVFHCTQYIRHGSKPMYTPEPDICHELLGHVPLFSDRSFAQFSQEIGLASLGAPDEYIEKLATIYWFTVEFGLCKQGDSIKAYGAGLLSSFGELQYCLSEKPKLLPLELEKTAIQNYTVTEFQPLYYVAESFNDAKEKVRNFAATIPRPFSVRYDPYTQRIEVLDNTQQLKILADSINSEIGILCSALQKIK
# Method: (§1) A similar assay was used to measure PAH activity in cells lysates using 1 mM L-Phe and 200 μM BH4 with 10 min reactions and about 20-90 μg of total protein. Free amino acids and contaminants of low molecular weight were previously removed from the extracts using Zebra Desalt Spin columns (Pierce Biotechnology).
# (§2) For transient expression of WT and mutant PAH, HEK293 EBNA (Epstein-Barr virus) cells, with low endogenous PAH expression, were grown as above. Cells were grown for 19 h, when they were transfected transiently transfected with […] of pcDNA3-PAH vector (WT or mutant PAH constructs R261Q, R252W, I65T and R68S) using the Lipofectamine system (Life Technologies™) as described by the manufacturer. Compound 53, with and without BH2 (200 μM) was added after 5 h of transfection at 200 μM concentration in 1% DMSO, and further incubated for 24 h, at which time the cells were harvested and stored at −80° C. In all cases a parallel negative control with only 1% DMSO was included. Cell lysates were prepared as indicated above.
# (§3) Western blot analyses were performed on either cell extracts from permanently expressing or transiently transfected HEK293 cell lysates after SDS-PAGE (10% acrylamide) with 5-10 μg total protein in each lane. […] Neomycin phosphotransferase II was used as a marker of the plasmid transfection efficiency, and GAPDH was used as loading controls. […]
# [3] = target: R68S-PAH (Homo sapiens, UniProt P00439, R68S); conditions: 200 μM, 24 h, 1% DMSO
# Sequence of R68S-PAH (P00439 whole entry R68S): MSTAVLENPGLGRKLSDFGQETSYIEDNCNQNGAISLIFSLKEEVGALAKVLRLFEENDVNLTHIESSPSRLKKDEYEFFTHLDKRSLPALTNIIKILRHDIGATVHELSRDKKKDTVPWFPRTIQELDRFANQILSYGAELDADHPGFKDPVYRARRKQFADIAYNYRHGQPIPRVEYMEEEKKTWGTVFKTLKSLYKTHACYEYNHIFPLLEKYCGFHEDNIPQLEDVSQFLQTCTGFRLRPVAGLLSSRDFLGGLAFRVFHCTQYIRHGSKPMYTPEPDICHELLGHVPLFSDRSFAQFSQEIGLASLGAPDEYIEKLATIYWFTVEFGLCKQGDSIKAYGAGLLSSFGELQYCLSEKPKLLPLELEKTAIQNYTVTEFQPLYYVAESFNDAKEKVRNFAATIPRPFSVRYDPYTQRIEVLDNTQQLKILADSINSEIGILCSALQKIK
# Method: as §1, §2, §3
# [4] = target: T2, R261Q-PAH (Homo sapiens, UniProt P00439, R261Q); test: PAH protein level and activity in HEK293 EBNA cells transiently expressing PKU mutant R261Q; assay type: cell-based; conditions: 24 h
# T2 construct: expressed in transfected cells; host or cells: HEK293 EBNA, transient, pcDNA3-PAH
# T2 sequence (P00439 1-452 R261Q): T1 sequence (P00439 1-452 R252W) with W252R, R261Q
# Method: Cell lysates were prepared as indicated above.
# Sequence of tyrosine hydroxylase (TH) (P07101 whole entry): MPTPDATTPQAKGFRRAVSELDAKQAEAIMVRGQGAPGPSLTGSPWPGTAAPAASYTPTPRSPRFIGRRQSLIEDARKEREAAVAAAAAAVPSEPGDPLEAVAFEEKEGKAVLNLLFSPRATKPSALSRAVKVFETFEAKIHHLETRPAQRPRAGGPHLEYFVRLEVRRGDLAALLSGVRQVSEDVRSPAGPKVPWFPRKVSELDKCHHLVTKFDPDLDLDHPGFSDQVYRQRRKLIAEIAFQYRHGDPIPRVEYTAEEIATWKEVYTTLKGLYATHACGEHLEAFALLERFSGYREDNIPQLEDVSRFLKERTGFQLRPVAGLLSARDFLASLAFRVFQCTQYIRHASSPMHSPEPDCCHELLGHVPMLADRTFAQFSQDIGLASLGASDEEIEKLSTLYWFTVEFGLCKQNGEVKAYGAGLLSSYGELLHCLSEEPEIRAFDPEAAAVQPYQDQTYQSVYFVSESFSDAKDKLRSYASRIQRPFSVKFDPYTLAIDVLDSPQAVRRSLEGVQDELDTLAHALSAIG
structure (smiles),measurement,setting,value
"COc1cc(Cc2cnc(N)nc2N)cc(OC)c1OC [c53, trimethoprim]",effect on TH activity,[1],did not have large effect
same,"effect on mutant R252W (protein, activity)","[2]; 200 μM alone, 24 h, 1% DMSO",neither the compound or BH4 affected
same,"protein content, mutant R252W, compound and cofactor analogue together","[2]; Compound 53 200 μM plus BH2 200 μM, 24 h (FIG. 2D)",a little stimulation of the protein content
same,"PAH activity, mutant R68S",[3],An effect
same,"protein and activity, mutant R261Q, Compound 53 and BH2 together",[4]; 200 μM each,trends for additive effects
same,"PAH activity, mutant R261Q","[4]; 200 μM, 1% DMSO",greatly increased
same,"hPAH protein level, mutant R261Q","[4]; 200 μM, 1% DMSO",greatly increased

# Reference: patent US10265303B2, “Hyperphenylalaninemia and treatments thereof” (BERGEN TEKNOLOGIOVERFØRING AS, priority 2015, dated 2019)
